Data set [1] concerns the target T1, Tec kinase mediated tyrosine phosphorylation of STAP1 (Homo sapiens, UniProt P42680).
T1 construct: made in house; host or cells: Tec: SF9 insect cells (baculovirus); STAP1 purchased (Hölzel Diagnostika, Cat. # GWB-P0486E-100)
As to the kind of experiment: In vitro Tec kinase mediated tyrosine phosphorylation of STAP1. Particulars: 50 μM compound; FIGS. 7C and F. It counts as biochemical. The method, then:
FGF2 and STAP1 tyrosine phosphorylation as well as Tec kinase auto-phosphorylation were analyzed as described in the legend to FIG. 6 and in Experimental Procedures. In vitro phosphorylation experiments were conducted in the absence (1% DMSO mock control) and presence of the small molecule inhibitors (#6, #14, #21; 50 μM in 1% DMSO) and control compounds (#18, #19; 50 μM in 1% DMSO) introduced in FIGS. 4 and 5. A Western analysis was conducted using anti-phosphotyrosine antibodies (anti-pY-FGF2 for FGF2 and Tec as well as anti-pY-4G10 for STAP1). M=PageRuler Prestained Protein Ladder: 140, 115, 80, 65, 50, 40, 30, 25, 15, 10 kDa. Fluorescent secondary antibodies were used to detect and quantify antigens using the LI-COR Odyssey imaging platform. In panels D, E and F, following normalization based upon background signals detected in the absence of Tec kinase or ATP, the average of the signals detected under mock conditions was defined as 100% activity. Standard deviations are shown. A one-tailed and unpaired T-test was conducted to assess statistical significance (* p<0.05, ** p<0.01, *** p<0.001, **** p<0.0001). “NS” indicates absence of significant differences.
A Tec kinase in vitro phosphorylation assay was established to test the inhibitory potential and selectivity of the small molecule inhibitors reported in this study (FIGS. 6 and 7). […] Phosphorylation levels of GST-NΔ173 Tec (auto-phosphorylation), FGF2 and STAP1 were quantified by a Western analysis using polyclonal anti-phosphotyrosine antibodies raised against a FGF2-derived synthetic peptide containing a phosphorylated tyrosine residue (ANRpYLAMKED; SEQ ID NO: 1). […] Phosphorylation levels of STAP1 were monitored using a monoclonal anti-phosphotyrosine antibody (clone 4G10®, #05-321, Merck Millipore). Appropriate fluorescent secondary antibodies (goat anti-rabbit IgG conjugated with Alexa Fluor® 680, # A-21076, Life Technologies; goat anti-mouse IgG conjugated with Alexa Fluor® 680, # A-21057, Life Technologies) were used to quantify all antigens employing the LI-COR Odyssey infrared imaging platform. […]

A short description of data set [2]: Observation of compound aggregates in cell culture media. It counts as physicochemical. Particulars: 25 and 50 μM.

From patent US10842793B2, “Inhibitors of the unconventional secretion of fibroblast growth factor 2 (FGF2) by tumor cells and uses thereof” (Universität Heidelberg, priority 2016, dated 2020) come the findings set out here.

“Also recorded” adds a separate entry of the source.

T1 sequence (P42680 174-631): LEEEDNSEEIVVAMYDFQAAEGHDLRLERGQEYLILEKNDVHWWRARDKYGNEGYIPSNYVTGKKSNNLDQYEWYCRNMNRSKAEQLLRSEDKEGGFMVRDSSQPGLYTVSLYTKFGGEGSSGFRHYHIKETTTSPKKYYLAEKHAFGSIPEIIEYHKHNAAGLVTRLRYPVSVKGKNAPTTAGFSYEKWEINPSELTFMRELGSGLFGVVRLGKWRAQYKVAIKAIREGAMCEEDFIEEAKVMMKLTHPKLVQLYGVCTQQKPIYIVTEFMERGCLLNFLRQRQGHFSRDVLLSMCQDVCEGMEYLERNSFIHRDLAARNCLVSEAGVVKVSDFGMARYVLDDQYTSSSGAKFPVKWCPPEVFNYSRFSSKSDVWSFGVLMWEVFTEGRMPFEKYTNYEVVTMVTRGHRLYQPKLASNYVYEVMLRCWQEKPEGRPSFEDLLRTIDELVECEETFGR

For `COC(=O)c1c(C)[nH]c(C(=O)OCc2cc(=O)n3c(C)cccc3n2)c1C` [compound #6], in data set [1], the “effect on tyrosine phosphorylation of STAP1” value was “neither auto-phosphorylation of NΔ173 Tec nor tyrosine phosphorylation of STAP1 is affected”.
Same read-out and setting: the result for `CC(=O)c1c(C)[nH]c(C(=O)OCc2cc(=O)n3cc(Br)ccc3n2)c1C` [compound #14] reads “neither auto-phosphorylation of NΔ173 Tec nor tyrosine phosphorylation of STAP1 is affected”.
Turning to `CC(=O)c1c(C)[nH]c(C(=O)CSc2nc3cc(Cl)cnc3[nH]2)c1C` [compound #21], the “solubility / aggregates of compound” value in data set [2] was “aggregates of compound #21 were increasingly observable at concentrations of 25 and 50 μM; also recorded: solubility issues”. The “effect on tyrosine phosphorylation of STAP1” value in data set [1] is “neither auto-phosphorylation of NΔ173 Tec nor tyrosine phosphorylation of STAP1 is affected”.
